Laboratory results reported in patent publication US8492310B2, “Herbicidal compositions containing benzoylpyrazole compounds” (priority 2008, dated 2013).
Where two headings read alike, the source gives them in different places.

How the values were obtained:
Format in all cases: in vivo
[1] = system: giant foxtail (Setaria faberi Herrm.); experiment: Foliar treatment pot test, visual growth inhibition rate, giant foxtail (SF); settings: 336 h, read-out: Growth inhibition rate (%) of SF Measured value
Text: (§1) When the herbicidal activity in a case where two active ingredients are combined, is larger than the simple sum of the respective herbicidal activities of the two active ingredients (the expected activity), it is called a synergistic effect. The activity expected by the combination of two active ingredients can be calculated as follows (Colby S. R., “Weed”, vol. 15, p. 20-22, 1967). E=α+β−(α×β÷100) where
(§2) Upland field soil was put into a 1/1,000,000 hectare pot, and seeds of various plants (barnyardgrass (Echinochloa crus-qalli L.), crabgrass (Digitaria sanguinalis L.), giant foxtail (Setaria faberi Herrm.), velvetleaf (Abutilon theophrasti MEDIC.) and prickly sida (Sida spinosa L.)) were sown. When the respective plants reached predetermined leaf stage, herbicidal compositions in predetermined amounts were diluted with water in an amount corresponding to 300 L/ha and applied for foliar treatment by a small sprayer.
(§3) Further, in accordance with the above Colby's formula, the growth inhibition rate (calculated value) was calculated. In Tables, with respect to the compound Q, Compound Nos. in Table 1 are described, and with respect to other herbicidal compounds, common names are described. Further, in Tables, barnyardgrass is represented by “EC”, crabgrass by “DS”, giant foxtail by “SF”, velvetleaf by “AT”, and prickly sida by “SS”.

[2] = system: velvetleaf (Abutilon theophrasti MEDIC.); experiment: Foliar treatment pot test, visual growth inhibition rate, velvetleaf (AT)
Method in brief: (§4)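 Seeds were sown in upland soil pots, and plants were sprayed on the foliage at a predetermined leaf stage with herbicidal compositions diluted in water at 300 L/ha. Growth inhibition was rated visually. Expected combination activity was calculated by Colby's formula to assess synergy.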

[3] = system: crabgrass (Digitaria sanguinalis L.); experiment: Foliar treatment pot test, visual growth inhibition rate, crabgrass (DS); settings: Digitaria sanguinalis, foliar
Method in brief: as §4

[4] = system: barnyardgrass (Echinochloa crus-qalli L.); experiment: Foliar treatment pot test, visual growth inhibition rate, barnyardgrass (EC); settings: 504 h, 4.0-5.0 leaf stage, 21 DAT, read-out: Growth inhibition rate (%) of EC Measured value
Text: as §1, §2, §3

In the case of CCn1ncc(C(=O)c2ccc(S(C)(=O)=O)c(OCCOC)c2C)c1OC(C)OC(=O)OC (centres unmarked) [NO. 4, 1-(1-ethyl-4-(3-(2-methoxyethoxy)-2-methyl-4-(methylsulfonyl)benzoyl)-1H-pyrazol-5-yloxy)ethyl methyl carbonate], the inhibition at 7 g/ha [1] is reported as 75%, the “Growth inhibition rate (%) of AT Measured value” (from here on “Growth inhibition rate (%)”) ([2]; 3.0-4.0 leaf stage, 14 DAT, 15 g/ha) is reported as 80% and the “Growth inhibition rate (%)” value ([2]; 4.0-4.2 leaf stage, 20 DAT, 20 g/ha) is reported as 98%. For the same compound, the “Growth inhibition rate (%)” value ([2]; 4.2-4.3 leaf stage, 20 DAT, 5 g/ha) was 58%, the “Growth inhibition rate (%)” value ([2]; 4.2-4.3 leaf stage, 20 DAT, 10 g/ha) was 65% and the inhibition at 7 g/ha ([2]; Abutilon theophrasti, foliar, 336 h, read-out: Growth inhibition rate (%) of AT Measured value, 3.0-4.0 leaf stage, 14 DAT, 7 g/ha) was 70%. It also gave an inhibition at 5 g/ha ([2]; Abutilon theophrasti, foliar, 480 h, read-out: Growth inhibition rate (%) of AT Measured value, 4.0-4.2 leaf stage, 20 DAT, 5 g/ha) of 48%, an inhibition at 10 g/ha ([2]; Abutilon theophrasti, foliar, 480 h, read-out: Growth inhibition rate (%) of AT Measured value, 4.0-4.2 leaf stage, 20 DAT, 10 g/ha) of 73% and an inhibition at 5 g/ha ([2]; Abutilon theophrasti, foliar, 480 h, read-out: Growth inhibition rate (%) of AT Measured value, 4.1-4.2 leaf stage, 20 DAT, 5 g/ha) of 55%. The inhibition at 10 g/ha ([2]; Abutilon theophrasti, foliar, 480 h, read-out: Growth inhibition rate (%) of AT Measured value, 4.1-4.2 leaf stage, 20 DAT, 10 g/ha) was 63%, the inhibition at 10 g/ha ([2]; Abutilon theophrasti, foliar, 480 h, read-out: Growth inhibition rate (%) of AT Measured value, 4.2-4.3 leaf stage, 20 DAT, 10 g/ha) was 63% and the inhibition at 20 g/ha ([2]; Abutilon theophrasti, foliar, 480 h, read-out: Growth inhibition rate (%) of AT Measured value, 4.2-4.3 leaf stage, 20 DAT, 20 g/ha) was 70%. For the same compound, the inhibition at 5 g/ha ([2]; Abutilon theophrasti, foliar, 504 h, read-out: Growth inhibition rate (%) of AT Measured value, 4.0-4.3 leaf stage, 21 DAT, 5 g/ha) was 35%, the inhibition at 10 g/ha ([2]; Abutilon theophrasti, foliar, 504 h, read-out: Growth inhibition rate (%) of AT Measured value, 4.0-4.3 leaf stage, 21 DAT, 10 g/ha) was 60% and the inhibition at 5 g/ha ([2]; Abutilon theophrasti, foliar, 504 h, read-out: Growth inhibition rate (%) of AT Measured value, AT 4.0-4.3 leaf stage, 21 DAT, active ingredient 5 g/ha) was 35%. The inhibition at 10 g/ha ([2]; Abutilon theophrasti, foliar, 504 h, read-out: Growth inhibition rate (%) of AT Measured value, AT 4.0-4.3 leaf stage, 21 DAT, active ingredient 10 g/ha) was 60%, the inhibition at 5 g/ha ([2]; Abutilon theophrasti, foliar, 528 h, read-out: Growth inhibition rate (%) of AT Measured value, 4.5-5.0 leaf stage, 22 DAT, 5 g/ha) was 40% and the inhibition at 10 g/ha ([2]; Abutilon theophrasti, foliar, 528 h, read-out: Growth inhibition rate (%) of AT Measured value, 4.5-5.0 leaf stage, 22 DAT, 10 g/ha) was 50%. It also gave an inhibition at 20 g/ha ([2]; Abutilon theophrasti, foliar, 528 h, read-out: Growth inhibition rate (%) of AT Measured value, 4.5-5.0 leaf stage, 22 DAT, 20 g/ha) of 90%, an inhibition at 5 g/ha ([2]; Abutilon theophrasti, foliar, 552 h, read-out: Growth inhibition rate (%) of AT Measured value, 3.0-4.2 leaf stage, 23 DAT, 5 g/ha) of 75% and an inhibition at 10 g/ha ([2]; Abutilon theophrasti, foliar, 552 h, read-out: Growth inhibition rate (%) of AT Measured value, 3.0-4.2 leaf stage, 23 DAT, 10 g/ha) of 90%. The inhibition at 20 g/ha ([2]; Abutilon theophrasti, foliar, 552 h, read-out: Growth inhibition rate (%) of AT Measured value, 3.0-4.2 leaf stage, 23 DAT, 20 g/ha) was 95%, the inhibition at 7 g/ha ([3]; 336 h, read-out: Growth inhibition rate (%) of DS Measured value, 5.0-5.5 leaf stage, 14 DAT, 7 g/ha) was 75% and the inhibition at 5 g/ha ([3]; 480 h, read-out: Growth inhibition rate (%) of DS Measured value, 3.6-3.8 leaf stage, 20 DAT, 5 g/ha) was 40%. For the same compound, the inhibition at 10 g/ha ([3]; 480 h, read-out: Growth inhibition rate (%) of DS Measured value, 3.6-3.8 leaf stage, 20 DAT, 10 g/ha) was 50%, the inhibition at 20 g/ha ([3]; 480 h, read-out: Growth inhibition rate (%) of DS Measured value, 3.6-3.8 leaf stage, 20 DAT, 20 g/ha) was 73% and the inhibition at 5 g/ha ([3]; 480 h, read-out: Growth inhibition rate (%) of DS Measured value, 3.7-4.0 leaf stage, 20 DAT, 5 g/ha) was 93%. The inhibition at 5 g/ha ([3]; 480 h, read-out: Growth inhibition rate (%) of DS Measured value, 4.0-4.2 leaf stage, 20 DAT, 5 g/ha) was 40%, the inhibition at 10 g/ha ([3]; 480 h, read-out: Growth inhibition rate (%) of DS Measured value, 4.0-4.2 leaf stage, 20 DAT, 10 g/ha) was 50% and the inhibition at 20 g/ha ([3]; 480 h, read-out: Growth inhibition rate (%) of DS Measured value, 4.0-4.2 leaf stage, 20 DAT, 20 g/ha) was 73%. It also gave an inhibition at 5 g/ha ([3]; 480 h, read-out: Growth inhibition rate (%) of DS Measured value, 4.5-5.2 leaf stage, 20 DAT, 5 g/ha) of 53%, an inhibition at 10 g/ha ([3]; 480 h, read-out: Growth inhibition rate (%) of DS Measured value, 4.5-5.2 leaf stage, 20 DAT, 10 g/ha) of 89% and an inhibition at 10 g/ha ([3]; 480 h, read-out: Growth inhibition rate (%) of DS Measured value, 5.0-5.2 leaf stage, 20 DAT, 10 g/ha) of 93%. The inhibition at 20 g/ha ([3]; 480 h, read-out: Growth inhibition rate (%) of DS Measured value, 5.0-5.2 leaf stage, 20 DAT, 20 g/ha) was 98%, the inhibition at 5 g/ha ([3]; 480 h, read-out: Growth inhibition rate (%) of DS Measured value, 5.1-5.2 leaf stage, 20 DAT, 5 g/ha) was 48% and the inhibition at 10 g/ha ([3]; 480 h, read-out: Growth inhibition rate (%) of DS Measured value, 5.1-5.2 leaf stage, 20 DAT, 10 g/ha) was 73%. The inhibition at 5 g/ha ([3]; 504 h, read-out: Growth inhibition rate (%) of DS Measured value, 4.0-5.1 leaf stage, 21 DAT, 5 g/ha) was 75%, the inhibition at 20 g/ha ([3]; 528 h, read-out: Growth inhibition rate (%) of DS Measured value, 4.8-5.5 leaf stage, 22 DAT, 20 g/ha) was 94% and the inhibition at 7 g/ha ([3]; 552 h, read-out: Growth inhibition rate (%) of DS Measured value, 4.0-5.1 leaf stage, 23 DAT, 7 g/ha) was 80%. The inhibition at 10 g/ha ([3]; 552 h, read-out: Growth inhibition rate (%) of DS Measured value, 4.5-5.3 leaf stage, 23 DAT, 10 g/ha) was 87% and the inhibition at 20 g/ha ([3]; 552 h, read-out: Growth inhibition rate (%) of DS Measured value, 4.5-5.3 leaf stage, 23 DAT, 20 g/ha) was 99%.

CCCCCCCCSC(=O)Oc1cc(Cl)nnc1-c1ccccc1 [Pyridate, pyridate] gave an inhibition at 100 g/ha ([1]; 4.0-5.0 leaf stage, 14 DAT, 100 g/ha) of 0%, an inhibition at 200 g/ha ([2]; Abutilon theophrasti, foliar, 336 h, 4.1-4.5 leaf stage, 14 DAT, 200 g/ha, read-out: Growth inhibition rate (%) of AT Measured value) of 30% and an inhibition at 200 g/ha ([3]; 528 h, 4.0-5.0 leaf stage, 22 DAT, 200 g/ha, read-out: Growth inhibition rate (%) of DS Measured value) of 0%. It also gave an inhibition at 100 g/ha ([4]; 100 g/ha) of 0%.

For COC(=O)c1sccc1S(=O)(=O)NC(=O)Nc1nc(C)nc(OC)n1 [Thifensulfuron-methyl], the inhibition at 5 g/ha ([1]; 4.0-5.0 leaf stage, 14 DAT, 5 g/ha) was 0% and the inhibition at 5 g/ha ([4]; 5 g/ha) was 0%.
